Our source for the drug sensitivity score values is the supplement of paper PMC9265050, “Inhibition of RNA Binding in SND1 Increases the Levels of miR-1-3p and Sensitizes Cancer Cells to Navitoclax” (Cancers, 2022).

The assay deals with SW480. The assay is described as follows: drug sensitivity score (DSS, integrated dose-response area); higher = more sensitive (stronger viability reduction); extreme values may be limits of the assay. In outline: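 SW480 cells stably carrying doxycycline-inducible control or SND1-targeting shRNA were treated with 0.1 µg/mL doxycycline for 7 days. Cells were then seeded at 1000 per well into 384-well plates containing 525 commercially available small-molecule inhibitors at five concentrations, and viability was measured with CellTiter-Glo after 72 h. The drug sensitivity score integrates the area under a fitted non-linear dose–response model.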

The mark [1] stands for this setting: shRNA: SND1 shRNA1 (SND1 silenced).
Where [2] appears, read: shRNA: control shRNA (non-targeting).
Where [3] appears, read: shRNA: SND1 shRNA2 (SND1 silenced).

In the case of `CC(C)c1c(C(=O)Nc2ccccc2)c(-c2ccccc2)c(-c2ccc(F)cc2)n1CC[C@@H](O)C[C@@H](O)CC(=O)O` [Atorvastatin], the drug sensitivity score runs as follows: under setting [1], 4.9 DSS; under setting [2], 7.6 DSS.
Take `Cc1cc([C@@H](C)Nc2ccccc2C(=O)O)c2nc(N3CCOCC3)cc(=O)n2c1` [AZD-6482]: the drug sensitivity score came to 0 DSS under setting [1], 4.3 DSS under setting [3] and 3 DSS under setting [2].
The corresponding values for `Nc1cc(C(F)(F)F)c(-c2cc(N3CCOCC3)nc(N3CCOCC3)n2)cn1` [Buparlisib] are 8.9 DSS, 7.7 DSS and 5.9 DSS.
On to `CN(C)Cc1ccc(S(=O)(=O)n2ccc(/C=C/C(=O)NO)c2)cc1` [Resminostat], for which the drug sensitivity score under setting [1] is 8 DSS, the drug sensitivity score under setting [3] came to 8.1 DSS and the drug sensitivity score under setting [2] was determined as 6.1 DSS.
The corresponding values for `CN(N=O)C(=O)N[C@@H](C=O)[C@@H](O)[C@H](O)[C@H](O)CO` [Streptozocin] are 0.8 DSS, 5.9 DSS and 4.1 DSS.
The corresponding values for `CCN1CCN(c2ccc(Nc3cc(N(C)C(=O)Nc4c(Cl)c(OC)cc(OC)c4Cl)ncn3)cc2)CC1` [NVP-BGJ398] are 0 DSS, 0 DSS and 0 DSS.
As to `Cc1nn(C)c(COc2ccc(N3CCN(S(=O)(=O)N(C)C)CC3)cc2)c1-c1cccc2c(CCCOc3cccc4ccccc34)c(C(=O)O)n(CCN3CCOCC3)c12`, the drug sensitivity score is, setting by setting: under setting [1], 4.9 DSS; under setting [3], 4.4 DSS; under setting [2], 5.7 DSS.
In the same order, the values of `Cc1ccc(NC(=O)c2ccc(CN3CCN(C)CC3)cc2)cc1Nc1nccc(-c2cccnc2)n1` [Imatinib] are 0.7 DSS, 1.4 DSS and 2.5 DSS.
In the same order, the values of `CCN(CC)CCOc1ccc(C(=C(Cl)c2ccccc2)c2ccccc2)cc1` [Clomifene] are 7 DSS, 5.3 DSS and 6.1 DSS.
The corresponding values for `O=C(Nc1ccncc1)C(=O)c1cn(Cc2ccc(Cl)cc2)c2ccccc12` [Indibulin] are 8.8 DSS, 7.7 DSS and 8.8 DSS.
Consider `C=CC(=O)Nc1cccc(Nc2nc(Nc3ccc(OCCOC)cc3)ncc2F)c1` [Spebrutinib], for which the drug sensitivity score is 2.5 DSS under setting [1], 0 DSS under setting [3] and 4.4 DSS under setting [2].
The corresponding values for `O=C(NC[C@H](O)CN1CCc2ccccc2C1)c1cc(NC2COC2)ncn1` are 0 DSS, 0 DSS and 0.2 DSS.
For `CCCCCCCCCCCCCCCCCCOP(=O)([O-])OC1CC[N+](C)(C)CC1` [Perifosine], the drug sensitivity score reads like this: under setting [1], 2.3 DSS; under setting [2], 3.7 DSS.
For `CC(=O)Nc1ccc(C(=O)Nc2ccccc2N)cc1` [Tacedinaline], the drug sensitivity score runs as follows: under setting [1], 0 DSS; under setting [3], 4.5 DSS; under setting [2], 3.8 DSS.
`Nc1nc2[nH]cc(CCc3ccc(C(=O)N[C@@H](CCC(=O)O)C(=O)O)cc3)c2c(=O)[nH]1` [Pemetrexed]: the drug sensitivity score under setting [1] came to 9.9 DSS and the drug sensitivity score under setting [2] worked out at 6.5 DSS.
Regarding `CNc1nc(-c2ccc3c(N)n[nH]c3c2)cc(N2C[C@@H](C(=O)NC3CCCCC3)CC[C@H]2C)n1`, the drug sensitivity score is 4.7 DSS under setting [1], 4.2 DSS under setting [3] and 3.8 DSS under setting [2].
The corresponding values for `O=C(Nc1cccc(Cl)c1)Nc1ncc(CCNc2ncnc3ccsc23)s1` [SNS-314] are 4.8 DSS, 4.3 DSS and 5.6 DSS.
The corresponding values for `Cn1cc(-c2cnn3c(N)c(Br)c([C@@H]4CCCNC4)nc23)cn1` [MK-8776] are 0.9 DSS, 0.1 DSS and 2.2 DSS.
As for `Cc1ncc(-c2ccnc(Nc3ccc(S(C)(=O)=O)cc3)n2)n1C(C)C` [AZD-5438], the drug sensitivity score stood at 11.8 DSS under setting [1] and 12.7 DSS under setting [2].
As for `CNc1ncc2cc(-c3cc(NC(=O)NCCC(C)(C)C)c(F)cc3C)c(C)nc2n1`, the drug sensitivity score under setting [1] was determined as 13.4 DSS, the drug sensitivity score under setting [3] was 6.6 DSS and the drug sensitivity score under setting [2] came to 9.7 DSS.
The corresponding values for `Nc1cccc2c1CN(C1CCC(=O)NC1=O)C2=O` (centres undefined) [Lenalidomide] are 0 DSS, 0.1 DSS and 2.3 DSS.
`COc1cc(Nc2ncc3c(n2)-c2ccc(Cl)cc2C(c2c(F)cccc2OC)=NC3)ccc1C(=O)O` [Alisertib] returned a drug sensitivity score under setting [1] of 12.6 DSS, a drug sensitivity score under setting [3] of 4.4 DSS and a drug sensitivity score under setting [2] of 6.5 DSS.
Turning to `COc1cc(OC)c(/C=C/S(=O)(=O)Cc2ccc(OC)c(NCC(=O)O)c2)c(OC)c1` [Rigosertib], the drug sensitivity score under setting [1] was determined as 15.1 DSS, the drug sensitivity score under setting [3] was found to be 18.2 DSS and the drug sensitivity score under setting [2] is 16.4 DSS.
The corresponding values for `C#Cc1cccc(Nc2ncnc3cc4c(cc23)OCCOCCOCCO4)c1` [Icotinib] are 1.1 DSS, 3.8 DSS and 1.1 DSS.
The corresponding values for `Cc1cc(C(C)Nc2ccccc2)c2nc(N3CCOCC3)cc(=O)n2c1` (centres undefined) [TGX-221] are 1.6 DSS, 2.5 DSS and 0.8 DSS.
The corresponding values for `COc1ccc(CCc2nc3cc(-c4c(C)noc4C)ccc3n2C[C@H](C)N2CCOCC2)cc1Cl` [SGC-CBP30] are 0.8 DSS, 2.1 DSS and 2.3 DSS.
For the compound `O=C(CCBr)N1CCN(C(=O)CCBr)CC1` [Pipobroman], the drug sensitivity score stood at 0.1 DSS under setting [1], 1.5 DSS under setting [3] and 0.1 DSS under setting [2].
For `CO[C@H](C(=O)[C@@H](O)[C@@H](C)O)[C@@H]1Cc2cc3cc(O[C@H]4C[C@@H](O[C@@H]5C[C@@H](O)[C@H](O)[C@@H](C)O5)[C@H](O)[C@@H](C)O4)c(C)c(O)c3c(O)c2C(=O)[C@H]1O[C@H]1C[C@@H](O[C@@H]2C[C@@H](O)[C@@H](O[C@@H]3C[C@](C)(O)[C@H](O)[C@@H](C)O3)[C@@H](C)O2)[C@H](O)[C@@H](C)O1` [Plicamycin], the drug sensitivity score by setting is: under setting [1], 1.9 DSS; under setting [3], 0 DSS; under setting [2], 3.5 DSS.
As for `Oc1nc(-c2ccc(C(F)(F)F)cc2)nc2c1CSCC2` [XAV-939], the drug sensitivity score by setting is: under setting [1], 3.9 DSS; under setting [3], 0 DSS; under setting [2], 3.2 DSS.
The corresponding values for `CCc1c2c(nc3ccc(O)cc13)-c1cc3c(c(=O)n1C2)COC(=O)[C@]3(O)CC` [SN-38] are 21.2 DSS, 12.5 DSS and 18.7 DSS.
In the same order, the values of `CN(c1ncccc1CNc1nc(Nc2ccc3c(c2)CC(=O)N3)ncc1C(F)(F)F)S(C)(=O)=O` are 4.9 DSS, 3.5 DSS and 3.4 DSS.
